According to patent US20090281156A1, “ENHANCING PHOTOSTABILIZATION OF OXYMETAZOLINE” (Schering-Plough Healthcare Products, Inc,, priority 2007, published 2009):
Where a name gives a salt, the structure may show the parent alone.

Legend:
[1] = in vivo; cited from earlier work
[2] = exemplary conventional formulation; cited from earlier work
[3] = ICH photostability testing of oxymetazoline HCl solutions (quartz container, twice ICH exposure); assay type: physicochemical; details: for drug degraded after UV light exposure: McIlvaine buffer pH=6
Method: 0.05% (w/v) oxymetazoline HCl solutions with pH ranging from 4 to 6 were prepared using McIlvaine buffer systems (Solutions I-III). At each pH level, 0.05% oxymetazoline HCl solutions containing either Povidone 29-32 (approximately 3% w/v) or PEG 1450 (approximately 5% w/v) were also made ([…]).
Example embodiments were tested for photostability according to methods described in ICH Harmonized Tripartite Guidelines Stability Testing: Photostability Testing of New Drug Substances and Products. Each sample for photostability studies was placed in an enclosed quartz container and exposed to twice the exposure required by ICH photostability guideline (total exposure of 2.4 million lux hours and an integrated near UV energy of 400 watt hours/square meter).
All of the observed oxymetazoline HCl degradation peaks were calculated and presented in percentage.

CN1CCC(=C2c3ccccc3CCc3cccnc32)CC1 [Azatadine]
elimination half-life [1]: 9 to 12 h

CCOC(=O)N1CCC(=C2c3ccc(Cl)cc3CCc3cccnc32)CC1 [loratadine]
antihistaminic effect lasts [2]: > 24 h

Cc1cc(C(C)(C)C)c(O)c(C)c1CC1=NCCN1 [oxymetazoline HCl, 6-tert-butyl-3-(2-imidazolin-2-ylmethyl)-2,4-dimentylphenol hydrochloride]
drug degraded after UV light exposure ([3]; 24 hours of UV light exposure): roughly 9% | drug degraded after UV light exposure ([3]; 40 hours of UV light exposure): ~72% | light sensitivity ([3]; aqueous solution): light sensitive | increase in the total degradation on incorporating PEG 1450 ([3]; pH 5, T=40 hours, PEG 1450 approximately 5% w/v): roughly 4 fold | increase in the total photodegradation in presence of Povidone K29-32 ([3]; pH=6, T=40 hours, Povidone K29-32 approximately 3% w/v): about 21%
